Measured values as given in patent publication US10487053B2, “Acid addition salt of 1-(5-(2,4-difluorophenyl)-1-((3-fluorophenyl)sulfonyl)-4-methoxy-1H-pyrrol-3-yl)-N-methylmethanamine” (Daewoong Pharmaceutical Co., Ltd., priority 2016, dated 2019).

What was measured:
[1] = Stability confirmation test (impurity formation during storage under severe conditions, liquid chromatography); format: physicochemical
Experimental: The stability test was carried out for the acid addition salts prepared in the Examples to evaluate the degree to which impurities were formed during storage under severe conditions (moisture-proof condition and high-humidity exposure condition). The results of the stability test under the moisture-proof condition were shown in Table 2 below, and the results of the stability test under the high-humidity exposure condition were shown in Table 3 below. For the stability test, vials containing 10 mg of each sample which was precisely weighed and taken were prepared in the planned quantity, and they were stored by dividing into the moisture-proof condition (60° C. and less than 10% relative humidity) and under the high-humidity exposure condition (60° C. and 95% relative humidity). However, under the high-humidity exposure condition, a stopper of the vial was not used to keep so that the sample is in sufficient contact with a moisture in the air. At a fixed point of time after the initiation of the test, two vials per point of time were taken (number of samples per test n=2). 10 ml of methanol was added to each vial to dissolve the sample, which was then centrifuged. The resulting supernatant was analyzed using a liquid chromatography. The peak area was determined by integration for all detected peaks, and the relative peak area for the main component and the total impurity was calculated and expressed as an average value.

Solubility test in water = format: physicochemical; settings: deionized water, thermodynamic from solid
Experimental: For the solubility test in water, a sample of less than 10 mg was first precisely weighed and taken, and placed into a vial, to which 50 μl of deionized water was added, shaking for 30 seconds and ultrasonic shaking for 1 minute were carried out, and these processes were repeated several times. The water solubility was calculated by measuring the amount of water used to dissolve all the samples.

[2] = high-humidity exposure condition (60° C. and 95% relative humidity), After 1 week
[3] = high-humidity exposure condition (60° C. and 95% relative humidity), After 2 weeks
[4] = high-humidity exposure condition (60° C. and 95% relative humidity), After 4 weeks
[5] = high-humidity exposure condition (60° C. and 95% relative humidity), Initial
[6] = moisture-proof condition (60° C. and less than 10% relative humidity), After 2 weeks
[7] = moisture-proof condition (60° C. and less than 10% relative humidity), After 4 weeks
[8] = moisture-proof condition (60° C. and less than 10% relative humidity), Initial

Row | Compound | Peak area of main component (%) [1, 2] [%] | Peak area of total impurities (%) [1, 2] [%] | Peak area of main component (%) [1, 3] [%] | Peak area of total impurities (%) [1, 3] [%] | Peak area of main component (%) [1, 4] [%] | Peak area of total impurities (%) [1, 4] [%] | Peak area of main component (%) [1, 5] [%] | Peak area of total impurities (%) [1, 5] [%] | Peak area of main component (%) [1, 6] [%] | Peak area of total impurities (%) [1, 6] [%] | Peak area of main component (%) [1, 7] [%] | Peak area of total impurities (%) [1, 7] [%] | Peak area of main component (%) [1, 8] [%] | Peak area of total impurities (%) [1, 8] [%] | solubility (Solubility test in water) [mg/mL]
1 | CNCc1cn(S(=O)(=O)c2cccc(F)c2)c(-c2ccc(F)cc2F)c1OC.Cl [Example 1, 1-(5-(2,4-difluorophenyl)-1-((3-fluorophenyl)sulfonyl)-4-methoxy-1H-pyrrol-3-yl)-N-methylmethanamine hydrochloride] | 99.81 | 0.19 | 99.80 | 0.20 | 99.80 | 0.20 | 99.82 | 0.18 | 99.80 | 0.19 | 99.80 | 0.20 | 99.82 | 0.18 | 11.1
2 | CNCc1cn(S(=O)(=O)c2cccc(F)c2)c(-c2ccc(F)cc2F)c1OC.O=C(O)CCC(=O)O [Example 2, 1-(5-(2,4-difluorophenyl)-1-((3-fluorophenyl)sulfonyl)-4-methoxy-1H-pyrrol-3-yl)-N-methylmethanamine succinate] | 99.56 | 0.44 | 99.53 | 0.47 | 99.47 | 0.54 | 99.55 | 0.45 | 99.61 | 0.39 | 99.55 | 0.45 | 99.55 | 0.45 | 7.2
3 | CNCc1cn(S(=O)(=O)c2cccc(F)c2)c(-c2ccc(F)cc2F)c1OC.O=C(O)C(O)C(O)C(=O)O [Example 3, 1-(5-(2,4-difluorophenyl)-1-((3-fluorophenyl)sulfonyl)-4-methoxy-1H-pyrrol-3-yl)-N-methylmethanamine tartrate] | 99.48 | 0.52 | 99.43 | 0.57 | 99.23 | 0.77 | 99.52 | 0.48 | 99.54 | 0.46 | 99.48 | 0.52 | 99.52 | 0.48 | 6.9
4 | CNCc1cn(S(=O)(=O)c2cccc(F)c2)c(-c2ccc(F)cc2F)c1OC.O=C(O)/C=C/C(=O)O [Example 4, 1-(5-(2,4-difluorophenyl)-1-((3-fluorophenyl)sulfonyl)-4-methoxy-1H-pyrrol-3-yl)-N-methylmethanamine fumarate] | 99.40 | 0.60 | 99.32 | 0.68 | 99.30 | 0.70 | 99.38 | 0.62 | 99.36 | 0.64 | 99.37 | 0.63 | 99.38 | 0.62 | 1.73 to 2.6
5 | CNCc1cn(S(=O)(=O)c2cccc(F)c2)c(-c2ccc(F)cc2F)c1OC [Preparation Example, 1-(5-(2,4-difluorophenyl)-1-((3-fluorophenyl)sulfonyl)-4-methoxy-1H-pyrrol-3-yl)-N-methylmethanamine] |  |  |  |  |  |  |  |  |  |  |  |  |  |  | < 0.16
